Assay results published in publication PMC11420707, “Functional and Immunologic Mapping of Domains of the Reticulocyte-Binding Protein Plasmodium vivax PvRBP2a” (The Journal of Infectious Diseases, 2024).
Residues, ends and D or L forms follow the SMILES beside them. *: point of attachment. Biotin = O=C1N[C@H]2[C@H](CS[C@H]2CCCCC(=O)*)N1

Legend:
[1] = target: soluble recombinant CD98 protein (Homo sapiens, UniProt P08195); experiment: biochemical
Experimental: PvRBP2a epitopes for reticulocyte and CD98 binding. […] Reticulocytes were blocked with the polyclonal rabbit anti-CD98 antibody (KE020) or a rabbit isotype control antibody for 15 minutes before staining with biotinylated peptide candidates and detection with streptavidin-APC. Reticulocytes were distinguished from normocytes via thiazole orange staining. […] (B) Candidate binding peptides were tested for direct binding to CD98 via biolayer interferometry. 2µM biotinylated peptides were loaded onto streptavidin-coated sensors, which was immersed in a solution of 200nM CD98 to assess binding. (C) Peptides with detectable binding in the initial binding screen were further analyzed for their binding kinetics to CD98 via biolayer interferometry, with 3 independent replicates. The mean and standard error for dissociation constant (KD), on-rate (ka) and off-rate (kd) are given.
Binding sensorgrams were collected on the Octet Red 96e system. Fresh streptavidin sensors were used without any regeneration step. Streptavidin sensor, without biotinylated peptide loading, but with maximum concentration of non-biotinylated CD98 was used as the reference. Kinetic binding assays were performed using Octet Data Acquisition version 10.0.1.3 at 37°C with orbital shaking speed of 1,000 rpm. The assay was carried out in PBS buffer supplemented with 0.05% Tween-20 and 1mg/mL BSA (PBST/BSA). For initial screening, the biosensor was sequentially dipped into wells containing 200µL of solution each: i) baseline, PBST/BSA (30 s), ii) loading, 2µM biotinylated peptide fragment or vehicle control (VC) (5 min), iii) washing, PBST/BSA (30 s), iv) blocking, 25µM biocytin (5 min) to minimize non-specific binding of CD98, v) washing, PBST/BSA (30 s), vi) association, 200 nM non-biotinylated CD98 (30 min) and vii) dissociation, PBST/BSA (15 min).

[2] = tested on: fresh human reticulocytes; experiment: Reticulocyte-binding assay (flow cytometry); assay type: cell-based; settings: 15 µg/mL biotinylated peptide, 37°C 1 hour; for binding to reticulocytes (% of reticulocytes bound): CD71-enriched cord blood reticulocytes, streptavidin-APC and thiazole orange, 2 independent replicates
Experimental: Fresh human cord blood was enriched for reticulocytes with CD71 microbeads and MACS columns (supplementary methods). Reticulocytes were washed twice with cold phosphate-buffered saline, added to 15 µg/mL of peptide solution, and incubated at 37°C for 1 hour. Reticulocytes were then stained with streptavidin-APC and thiazole orange at 37°C for 1 hour, washed, and acquired on a flow cytometer.
Reticulocytes were enriched from the human cord blood through the selection of CD71+ reticulocytes, using human CD71 microbeads (Miltenyi Biotec, clone AC108.1). Around 1-2ml of blood at 50% haematocrit in PBS was passed through a LS column. After two washing steps using PBS, the reticulocytes were stained with reticulocyte stain (Sigma Aldrich New Methylene Blue) and viewed under the microscope to ensure >80% purity of reticulocytes after selection.

[3] = tested on: sera from donors infected with P vivax; experiment: ELISA of peptide antigenicity against donor sera; assay type: binding, human; settings: for antigenicity against the seropositive sera mix: individual peptides, pooled sera of 20 P vivax-infected donors 1:267; for antigenic in seropositive cases (cases/donors): individual seropositive sera 1:1000, 20 donors
Source text: We next sought to identify the immunodominant epitopes within the PvRBP2a23-767 CD98-binding domain. Groups of 5 adjacent peptides each were pooled and examined for antigenicity against a mix of sera from 20 donors infected with P vivax (positive by blood smear microscopy) via enzyme-linked immunosorbent assay (Figure 2A). Binding against at least 15 negative donors (non–P vivax exposed) was also examined to control for nonspecific binding. […] To confirm their antigenicity, these peptides were then examined against individual seropositive or seronegative sera. PepLib 3 and PepLib 53 were antigenic in a minority of seropositive cases (7/20 and 2/20, respectively; Supplementary Figure 3B), whereas PepLib 52 was antigenic in most seropositive cases (18/20; Figure 2B). Thus, we identified PepLib 52 (PvRBP2a431-448) as the most reactive linear B-cell epitope in the CD98-binding region of PvRBP2a.
Figure 2. Identification of antigenic and functional linear epitopes of PvRBP2a. A, Peptides were pooled into groups of 5 and coated on streptavidin plates. Pooled sera were added from donors infected with Plasmodium vivax. Following washing, binding of peptides to donor sera was quantified with an anti-human horseradish peroxidase secondary antibody. The baseline was determined to be the mean + 3 SD of the reactivity of the seronegative sample pool to all peptide pools, and peptide pools showing a greater optical density (OD) value were deemed immunoreactive. B, The antigenicity of the antigenic peptide hit, PepLib_52, was confirmed by plasma from 20 donors who were seropositive and 22 who were seronegative. C, The effect of PvRBP2a-derived linear epitope peptides on P vivax invasion was examined on 5 P vivax clinical isolates. Selected CD98-binding PvRBP2a peptide candidates that were in cluster A (PepLib_25, PepLib_49) or cluster B/immunodominant (PepLib_41, PepLib_52), as well as negative control peptides (PepLib_50, PepLib_56) and positive control monoclonal antibodies (anti-Duffy 2C3, anti-CD98 HBJ127), were tested for their ability to inhibit P vivax invasion into reticulocytes. One well without addition of peptide or antibody served as a control for measurement of baseline reinvasion level. *P < .05 by 2-tailed t test with Shapiro-Wilk normality test.
Streptavidin-coated plates (Pierce) were blocked with 1% casein/1% BSA in 0.1% PBST overnight at 4°C, then coated with blocked with PvRBP2a-derived biotinylated peptides at 1:1000 dilution (approximately 15ug/ml) in 0.2% casein/0.2% BSA at room temperature for 1 hour. Pooled or individual donor sera was then applied at 1:267 (pooled) or 1:1000 (individual) dilution in 0.2% casein/0.2% BSA at room temperature for 1 hour, followed by secondary goat […] IgG-HRP at 1:1000 dilution in 0.1% casein/0.1% BSA at room temperature for 1 hour, then TMB substrate (Surmodics, BioFX® TMB One Component HRP Microwell Substrate) incubation for 5 minutes.

[4] = tested on: P vivax invasion into human reticulocytes; experiment: Inhibition of P vivax reticulocyte invasion; assay type: cell-based, Plasmodium vivax; settings: peptide 100 µg/mL, 5 P vivax clinical isolates, parasitemia at 24 hours versus well without peptide
Experimental: • Antibodies: anti-CD98 mouse IgG1 mAb HBJ127 [8] (Absolute Antibody) and anti-human DARC mouse IG1 mAb 2C3 [9] (Absolute Antibody); working concentration, 25 µg/mL • Cluster A or B PvRBP2a peptides: PepLib 25, 41, 49, 52; working concentration, 100 µg/mL • Control PvRBP2a peptides: PepLib 50, 56; working concentration, 100 µg/mL
Fresh/frozen blood isolates of P vivax were matured in vitro and late stages concentrated with MACS LD columns. Purified infected red blood cells were mixed with cord blood–derived CD71+ reticulocytes (sorted with CD71 beads + MACS LS columns). Infected red blood cell–reticulocyte mixtures were each mixed with an antibody/peptide as stated previously. Wells without peptide/antibody served as controls. All groups were cultivated in vitro as described before. Smears were made at the start (H0) to ensure that ring-stage parasitemia was 0% and 24 hours later (H24) to determine parasitemia (10 000 red blood cells counted). Statistically significant differences were identified by 2-tailed paired t test with Shapiro-Wilk normality test, performed in Prism 10.1.2 (GraphPad).

[5] = target: PepLib_21 (PvRBP2a_(183-200)) (Plasmodium vivax); experiment: BLI; biotinylated peptides (2 µM) loaded onto streptavidin-coated sensors, immersed in a solution of 200nM CD98
[6] = target: PepLib_36 (PvRBP2a_(303-320)) (Plasmodium vivax); experiment: as above
[7] = target: PepLib_40 (PvRBP2a_(335-352)) (Plasmodium vivax); experiment: as above
[8] = target: PepLib_49 (PvRBP2a_(407-424)) (Plasmodium vivax); experiment: as above

Chain of soluble recombinant CD98 protein (P08195 218-630): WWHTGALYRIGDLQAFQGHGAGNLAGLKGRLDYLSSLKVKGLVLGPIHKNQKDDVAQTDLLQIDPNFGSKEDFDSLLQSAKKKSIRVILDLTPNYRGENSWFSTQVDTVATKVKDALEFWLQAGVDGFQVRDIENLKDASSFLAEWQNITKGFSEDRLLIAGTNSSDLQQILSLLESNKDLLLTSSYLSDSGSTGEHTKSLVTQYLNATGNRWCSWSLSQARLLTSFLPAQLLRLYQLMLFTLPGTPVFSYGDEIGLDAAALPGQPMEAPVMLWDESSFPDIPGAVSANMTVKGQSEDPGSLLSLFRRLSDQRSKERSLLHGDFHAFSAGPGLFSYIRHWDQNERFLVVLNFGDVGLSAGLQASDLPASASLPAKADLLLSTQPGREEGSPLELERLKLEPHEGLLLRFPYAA

CC[C@H](C)[C@H](NC(=O)[C@H](CCC(=O)O)NC(=O)[C@H](C)NC(=O)[C@H](Cc1ccccc1)NC(=O)[C@H](Cc1ccc(O)cc1)NC(=O)[C@H](CC(N)=O)NC(=O)[C@H](CCSC)NC(=O)[C@H](CCC(N)=O)NC(=O)[C@@H](NC(=O)CNC(=O)[C@H](CO)NC(=O)CNC(=O)[C@H](CO)NC(=O)CCCC[C@@H]1SC[C@@H]2NC(=O)N[C@@H]21)C(C)C)C(=O)N[C@@H](CCCCN)C(=O)N[C@@H](Cc1ccc(O)cc1)C(=O)N[C@@H](Cc1ccc(O)cc1)C(=O)N[C@H](C(=O)N[C@H](C(=O)N[C@@H](Cc1ccc(O)cc1)C(=O)N[C@@H](Cc1c[nH]cn1)C(=O)N[C@@H](Cc1ccc(O)cc1)C(=O)N[C@@H](CCC(=O)O)C(=O)O)[C@@H](C)O)[C@@H](C)CC [PepLib_21] (Biotin-SGSGVQMNYFAEIKYYITYHYE-OH)
Kd [1]: 54.9 nM

CC[C@H](C)[C@H](NC(=O)[C@H](CCC(=O)O)NC(=O)[C@H](Cc1ccc(O)cc1)NC(=O)[C@@H](NC(=O)[C@H](CC(=O)O)NC(=O)[C@@H](NC(=O)[C@H](CCC(=O)O)NC(=O)[C@H](CS)NC(=O)CNC(=O)[C@H](CO)NC(=O)CNC(=O)[C@H](CO)NC(=O)CCCC[C@@H]1SC[C@@H]2NC(=O)N[C@@H]21)[C@@H](C)O)[C@@H](C)O)C(=O)N[C@@H](CCSC)C(=O)N[C@@H](CC(C)C)C(=O)N[C@@H](CCC(=O)O)C(=O)N[C@H](C(=O)N[C@@H](Cc1ccc(O)cc1)C(=O)N[C@H](C(=O)N[C@@H](CCC(=O)O)C(=O)N[C@@H](CCCNC(=N)N)C(=O)N[C@H](C(=O)N[C@@H](CCCCN)C(=O)O)C(C)C)C(C)C)[C@@H](C)CC [PepLib_36] (Biotin-SGSGCETDTYEIMLEIYVERVK-OH)
Kd [1]: 47.5 nM

CC[C@H](C)[C@H](NC(=O)[C@H](CCC(=O)O)NC(=O)[C@H](CCC(N)=O)NC(=O)[C@H](CCCCN)NC(=O)[C@@H](NC(=O)[C@H](CCCCN)NC(=O)[C@H](CC(C)C)NC(=O)[C@H](CCSC)NC(=O)[C@H](CC(C)C)NC(=O)[C@@H](NC(=O)[C@@H](NC(=O)CNC(=O)[C@H](CC(C)C)NC(=O)[C@H](CCC(N)=O)NC(=O)[C@H](CC(C)C)NC(=O)[C@H](CO)NC(=O)[C@H](C)NC(=O)[C@H](CCCCN)NC(=O)CNC(=O)[C@H](CO)NC(=O)CNC(=O)[C@H](CO)NC(=O)CCCC[C@@H]1SC[C@@H]2NC(=O)N[C@@H]21)C(C)C)[C@@H](C)O)C(C)C)C(=O)O [PepLib_40] (Biotin-SGSGKASLQLGVTLMLKVKQEI-OH)
Kd [1]: 70 nM

CC(C)C[C@H](NC(=O)[C@H](CO)NC(=O)[C@H](Cc1ccccc1)NC(=O)[C@H](CCCCN)NC(=O)[C@H](Cc1ccc(O)cc1)NC(=O)[C@@H](NC(=O)[C@H](C)NC(=O)[C@H](Cc1ccc(O)cc1)NC(=O)[C@H](Cc1ccccc1)NC(=O)[C@H](CC(N)=O)NC(=O)[C@H](C)NC(=O)[C@H](CO)NC(=O)[C@H](CC(=O)O)NC(=O)[C@H](Cc1ccccc1)NC(=O)[C@H](Cc1ccc(O)cc1)NC(=O)[C@H](CC(C)C)NC(=O)[C@H](CCCCN)NC(=O)[C@H](CCCCN)NC(=O)CNC(=O)[C@H](CO)NC(=O)CNC(=O)[C@H](CO)NC(=O)CCCC[C@@H]1SC[C@@H]2NC(=O)N[C@@H]21)[C@@H](C)O)C(=O)O [PepLib_49] (Biotin-SGSGKKLYFDSANFYATYKFSL-OH)
Kd [1]: 90.3 nM

ADYARYSNLQIIDIKSKY [PepLib_60, biotinylated 18-mer of the PvRBP2a23-767 peptide library]
binding to reticulocytes (% of reticulocytes bound) [2]: ≥ 10%

KLLANLYNKLITYVSEKI [PepLib_53, biotinylated 18-mer of the PvRBP2a23-767 peptide library]
binding to reticulocytes (% of reticulocytes bound) [2]: ≥ 10% | antigenicity against the seropositive sera mix [3]: showed antigenicity | antigenic in seropositive cases (cases/donors) [3]: 2/20

LYFISKSESMISEFEDTF [PepLib_56, biotinylated 18-mer of the PvRBP2a23-767 peptide library; negative control peptide]
binding to reticulocytes (in words) [2]: do not show binding to reticulocytes | inhibition of parasite invasion into reticulocytes, mean [4]: 50%

NFYATYKFSLKRADTTTA [PepLib_50, biotinylated 18-mer of the PvRBP2a23-767 peptide library; negative control peptide]
binding to reticulocytes (in words) [2]: do not show binding to reticulocytes | inhibition of parasite invasion into reticulocytes, mean [4]: 10.4%

PLMSSIQNQINSCVPKKA [PepLib_25, biotinylated 18-mer of the PvRBP2a23-767 peptide library]
binding to reticulocytes (% of reticulocytes bound) [2]: ≥ 10% | inhibition of parasite invasion into reticulocytes, mean [4]: 49.6%

TAALKEKGKLLANLYNKL [PepLib_52, biotinylated 18-mer of the PvRBP2a23-767 peptide library]
binding to reticulocytes (in words) [2]: did not bind directly to reticulocytes | antigenicity against the seropositive sera mix [3]: showed antigenicity | antigenic in seropositive cases (cases/donors) [3]: 18/20 | inhibition of parasite invasion into reticulocytes, mean [4]: 60.2%

TLMLKVKQEIDNNVTISA [PepLib_41, biotinylated 18-mer of the PvRBP2a23-767 peptide library]
binding to reticulocytes (% of reticulocytes bound) [2]: ≥ 10% | inhibition of parasite invasion into reticulocytes, mean [4]: −1.1%

WPLQDSLNESDKFEYTNG [PepLib_3, biotinylated 18-mer of the PvRBP2a23-767 peptide library]
antigenicity against the seropositive sera mix [3]: showed antigenicity | antigenic in seropositive cases (cases/donors) [3]: 7/20

YVNYLSTLKASLQLGVTL [PepLib_39, biotinylated 18-mer of the PvRBP2a23-767 peptide library]
binding to reticulocytes (% of reticulocytes bound) [2]: ≥ 10%

soluble recombinant CD98 protein (from UniProt P08195 1-529) (receptor)
Kd [5]: 54.9 nM | Kd [6]: 47.5 nM | Kd [7]: 70 nM | Kd [8]: 90.3 nM
